Results published in patent US20250230193A1, “CYCLIC COMPOUND HAVING SELECTIVE KRAS INHIBITORY EFFECT ON HRAS AND NRAS” (CHUGAI SEIYAKU KABUSHIKI KAISHA, priority 2022, published 2025).
*1 amine or outer side, *2 acyl side, *3 side chain or, on linkers, in order; H or OH if unused. Where a SMILES comes first, the peptide text is derived from it. Bridges are numbered along the chain shown (N, C = ends). [ ]: non-standard residue; d: D form. The star is where a group is joined. hPhe(3-Cl-4-CF3) = N[C@@H](CCc1ccc(C(F)(F)F)c(Cl)c1)C(=O)O; X10 = CCCN([C@@H](Cc1ccc(F)cc1)C(=O)[*:2])[*:1]; X44 = CCCN([C@@H](Cc1ccccc1)C(=O)[*:2])[*:1]; NEtPhe(4-F) = CCN[C@@H](Cc1ccc(F)cc1)C(=O)O; NMePhe(4-F) = CN[C@@H](Cc1ccc(F)cc1)C(=O)O; NMeGly(cPent) = CN[C@H](C(=O)O)C1CCCC1; NEtPhe = CCN[C@@H](Cc1ccccc1)C(=O)O; NMeD = CN[C@@H](CC(=O)O)C(=O)O; NMeL = CN[C@@H](CC(C)C)C(=O)O; Morpholide = C1CN(*)CCO1; NMeA = CN[C@@H](C)C(=O)O; Ac5c = NC1(C(=O)O)CCCC1; Aze = O=C(O)[C@@H]1CCN1; Sar = CNCC(=O)O

Legend:
[1] = target: GDP-bound HRAS wild-type protein (Homo sapiens, UniProt P01112); assay: Binding to HRAS by surface plasmon resonance (SPR), Single Cycle Kinetics; details: KD ratio HRAS/KRAS, SPR
[2] = target: GDP-bound NRAS wild-type protein (Homo sapiens, UniProt P01111); assay: Binding to NRAS by surface plasmon resonance (SPR), Single Cycle Kinetics; details: KD ratio NRAS/KRAS, SPR
Chain of GDP-bound NRAS wild-type protein (P01111 whole entry): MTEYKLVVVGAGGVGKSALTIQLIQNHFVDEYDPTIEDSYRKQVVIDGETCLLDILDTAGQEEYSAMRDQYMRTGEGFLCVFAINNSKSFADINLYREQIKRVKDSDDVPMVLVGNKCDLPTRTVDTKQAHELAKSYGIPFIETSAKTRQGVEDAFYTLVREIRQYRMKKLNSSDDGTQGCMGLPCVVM

Chain of GDP-bound HRAS wild-type protein (P01112 whole entry): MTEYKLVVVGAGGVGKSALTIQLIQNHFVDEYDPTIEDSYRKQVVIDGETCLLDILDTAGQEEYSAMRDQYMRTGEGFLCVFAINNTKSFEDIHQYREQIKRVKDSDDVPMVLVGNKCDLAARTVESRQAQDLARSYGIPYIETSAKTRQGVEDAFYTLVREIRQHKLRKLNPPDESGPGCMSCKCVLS

SMILES: CC[C@H](C)[C@@H]1NC(=O)[C@H](CC(C)C)N(C)C(=O)C[C@@H](C(=O)N2CCOCC2)N(C)C(=O)[C@H](C2CCCC2)N(C)C(=O)C2(CCCC2)NC(=O)[C@@H]2CCCN2C(=O)[C@H](CCc2ccc(C(F)(F)F)c(Cl)c2)NC(=O)CN(C)C(=O)[C@H](Cc2ccc(F)cc2)N(C)C(=O)CN(C)C(=O)CN(C)C1=O [PP0212] ([NMeL]I[Sar][Sar][NMePhe(4-F)][Sar][hPhe(3-Cl-4-CF3)]P[Ac5c][NMeGly(cPent)][NMeD]-Morpholide; lactam N-11)
- HRAS/KRAS (ratio of KD for GDP-bound HRAS wild-type to KD for KRAS) [1]: C (A compound having a KD ratio of 0.1 or more and less than 3 is denoted as C)
- NRAS/KRAS (ratio of KD for GDP-bound NRAS wild-type to KD for KRAS) [2]: C (A compound having a KD ratio of 0.1 or more and less than 3 is denoted as C)

SMILES: CC[C@H](C)[C@@H]1NC(=O)[C@H](CC(C)C)N(C)C(=O)C[C@@H](C(=O)N2CCOCC2)N(C)C(=O)[C@H](C2CCCC2)N(C)C(=O)C2(CCCC2)NC(=O)[C@@H]2CCCN2C(=O)[C@H](CCc2ccc(C(F)(F)F)c(Cl)c2)NC(=O)CN(C)C(=O)[C@H](Cc2ccc(F)cc2)N(CC)C(=O)CN(C)C(=O)CN(C)C1=O [PP0213] ([NMeL]I[Sar][Sar][NEtPhe(4-F)][Sar][hPhe(3-Cl-4-CF3)]P[Ac5c][NMeGly(cPent)][NMeD]-Morpholide; lactam N-11)
- HRAS/KRAS (ratio of KD for GDP-bound HRAS wild-type to KD for KRAS) [1]: C (A compound having a KD ratio of 0.1 or more and less than 3 is denoted as C)
- NRAS/KRAS (ratio of KD for GDP-bound NRAS wild-type to KD for KRAS) [2]: C (A compound having a KD ratio of 0.1 or more and less than 3 is denoted as C)

SMILES: CCCN1C(=O)CN(C)C(=O)CN(C)C(=O)[C@H]([C@@H](C)CC)NC(=O)[C@H](CC(C)C)N(C)C(=O)C[C@@H](C(=O)N2CCOCC2)N(C)C(=O)[C@H](C2CCCC2)N(C)C(=O)C2(CCCC2)NC(=O)[C@@H]2CCCN2C(=O)[C@H](CCc2ccc(C(F)(F)F)c(Cl)c2)NC(=O)CN(C)C(=O)[C@@H]1Cc1ccc(F)cc1 [PP0214] ([NMeL]I[Sar][Sar][X10][Sar][hPhe(3-Cl-4-CF3)]P[Ac5c][NMeGly(cPent)][NMeD]-Morpholide; lactam N-11)
- HRAS/KRAS (ratio of KD for GDP-bound HRAS wild-type to KD for KRAS) [1]: C (A compound having a KD ratio of 0.1 or more and less than 3 is denoted as C)
- NRAS/KRAS (ratio of KD for GDP-bound NRAS wild-type to KD for KRAS) [2]: B (a compound having 3 or more and less than 10 is denoted as B)

SMILES: CC[C@H](C)[C@@H]1NC(=O)[C@H](CC(C)C)N(C)C(=O)C[C@@H](C(=O)N2CCOCC2)N(C)C(=O)[C@H](C2CCCC2)N(C)C(=O)C2(CCCC2)NC(=O)[C@@H]2CCCN2C(=O)[C@H](CCc2ccc(C(F)(F)F)c(Cl)c2)NC(=O)CN(C)C(=O)[C@H](Cc2ccccc2)N(CC)C(=O)[C@@H]2CCN2C(=O)[C@H](C)N(C)C1=O [PP0215] ([NMeL]I[NMeA][Aze][NEtPhe][Sar][hPhe(3-Cl-4-CF3)]P[Ac5c][NMeGly(cPent)][NMeD]-Morpholide; lactam N-11)
- HRAS/KRAS (ratio of KD for GDP-bound HRAS wild-type to KD for KRAS) [1]: C (A compound having a KD ratio of 0.1 or more and less than 3 is denoted as C)
- NRAS/KRAS (ratio of KD for GDP-bound NRAS wild-type to KD for KRAS) [2]: C (A compound having a KD ratio of 0.1 or more and less than 3 is denoted as C)

SMILES: CCCN1C(=O)[C@@H]2CCN2C(=O)[C@H](C)N(C)C(=O)[C@H]([C@@H](C)CC)NC(=O)[C@H](CC(C)C)N(C)C(=O)C[C@@H](C(=O)N2CCOCC2)N(C)C(=O)[C@H](C2CCCC2)N(C)C(=O)C2(CCCC2)NC(=O)[C@@H]2CCCN2C(=O)[C@H](CCc2ccc(C(F)(F)F)c(Cl)c2)NC(=O)CN(C)C(=O)[C@@H]1Cc1ccccc1 [PP0216] ([NMeL]I[NMeA][Aze][X44][Sar][hPhe(3-Cl-4-CF3)]P[Ac5c][NMeGly(cPent)][NMeD]-Morpholide; lactam N-11)
- HRAS/KRAS (ratio of KD for GDP-bound HRAS wild-type to KD for KRAS) [1]: B (a compound having 3 or more and less than 10 is denoted as B)
- NRAS/KRAS (ratio of KD for GDP-bound NRAS wild-type to KD for KRAS) [2]: C (A compound having a KD ratio of 0.1 or more and less than 3 is denoted as C)
